Tested on: Echinochloa crus-galli
Assay: Test Example 1: herbicidal effect test by treatment of rice paddy soil (immediately after seeding)
Type: in vivo
Details: 120 g/10a active ingredient, dry weight vs untreated area, 14 days after treatment
Procedure, shortened: (§1)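 Paddy soil in pots with compound fertilizer, puddled; 30 seeds per species sown at 0–1 cm, flooded ~3 cm, greenhouse. Water-diluted emulsions dropped onto water immediately after seeding at 120 g active ingredient per 10 ares, duplicate. Herbicidal rate (%) from plant dry weight versus untreated, 14 days after treatment.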

Row | Structure (SMILES) | Herbicidal rate (%) Echinochloa crus-galli
1 | COCC(C)n1oc(=O)c(Cc2ccccc2N(C(=O)CC(C)C)S(=O)(=O)C(F)(F)F)c1C (stereo not drawn) [Compound 1-357] | 90%
2 | Cc1c(Cc2cc(F)ccc2NS(=O)(=O)C(F)(F)F)c(=O)on1CC(C)C [Compound 1-28] | 100%
3 | Cc1c(Cc2ccccc2N(C(=O)OCC(C)C)S(=O)(=O)C(F)(F)F)c(=O)on1C [Compound 1-666] | 100%

Tested on: Scirpus juncoides
Assay: as above
Type: in vivo
Details: 120 g/10a active ingredient, dry weight vs untreated area, 14 days after treatment
Procedure, shortened: as §1

Row | Structure (SMILES) | Herbicidal rate (%) Scirpus juncoides
4 | COCC(C)n1oc(=O)c(Cc2ccccc2N(C(=O)CC(C)C)S(=O)(=O)C(F)(F)F)c1C (stereo not drawn) [Compound 1-357] | 90%
5 | Cc1c(Cc2cc(F)ccc2NS(=O)(=O)C(F)(F)F)c(=O)on1CC(C)C [Compound 1-28] | 90%
6 | Cc1c(Cc2ccccc2N(C(=O)OCC(C)C)S(=O)(=O)C(F)(F)F)c(=O)on1C [Compound 1-666] | 90%

Tested on: broad leaf weeds (Lindernia pyxidaria and Monochoria vaginalis)
Assay: as above
Type: in vivo
Details: Lindernia pyxidaria, 120 g/10a active ingredient, dry weight vs untreated area, 14 days after treatment
Procedure, shortened: as §1

Row | Structure (SMILES) | Herbicidal rate (%) Lindernia pyxidaria
7 | COCC(C)n1oc(=O)c(Cc2ccccc2N(C(=O)CC(C)C)S(=O)(=O)C(F)(F)F)c1C (stereo not drawn) [Compound 1-357] | 90%
8 | Cc1c(Cc2cc(F)ccc2NS(=O)(=O)C(F)(F)F)c(=O)on1CC(C)C [Compound 1-28] | 90%
9 | Cc1c(Cc2ccccc2N(C(=O)OCC(C)C)S(=O)(=O)C(F)(F)F)c(=O)on1C [Compound 1-666] | 80%

Same assay, conditions: Monochoria vaginalis, 120 g/10a active ingredient, dry weight vs untreated area, 14 days after treatment

Row | Structure (SMILES) | Herbicidal rate (%) Monochoria vaginalis
10 | COCC(C)n1oc(=O)c(Cc2ccccc2N(C(=O)CC(C)C)S(=O)(=O)C(F)(F)F)c1C (stereo not drawn) [Compound 1-357] | 90%
11 | Cc1c(Cc2cc(F)ccc2NS(=O)(=O)C(F)(F)F)c(=O)on1CC(C)C [Compound 1-28] | 100%
12 | Cc1c(Cc2ccccc2N(C(=O)OCC(C)C)S(=O)(=O)C(F)(F)F)c(=O)on1C [Compound 1-666] | 100%

Tested on: Echinochloa crus-galli
Assay: Test Example 4: herbicidal effect test by treatment of leave and stem in dry field farming (seven days after seeding)
Type: in vivo
Details: 120 g/10a active ingredient; emulsion sprayed seven days after seeding; evaluated 14 days after treatment
Procedure, shortened: (§2)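 Weeds were seeded at 20 seeds per species into the top 1 cm of alluvial upland soil in pots, then sprayed 7 days after seeding with water-diluted emulsifiable concentrate at 100 L/10 a, giving 120 g active ingredient/10 a. Duplicate pots; herbicidal rate (%) was 14 days post-treatment, from dry weight versus untreated.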

Row | Structure (SMILES) | herbicidal effect (herbicidal rate), Echinochloa crus-galli
13 | COCC(C)n1oc(=O)c(Cc2ccccc2N(C(=O)CC(C)C)S(=O)(=O)C(F)(F)F)c1C (stereo not drawn) [Compound 1-357] | 90%
14 | Cc1c(Cc2cc(F)ccc2NS(=O)(=O)C(F)(F)F)c(=O)on1CC(C)C [Compound 1-28] | 90%
15 | Cc1c(Cc2ccccc2N(C(=O)OCC(C)C)S(=O)(=O)C(F)(F)F)c(=O)on1C [Compound 1-666] | 90%

Tested on: Amaranthus viridis
Assay: as above
Type: in vivo
Details: 120 g/10a active ingredient; emulsion sprayed seven days after seeding; evaluated 14 days after treatment
Procedure, shortened: as §2

Row | Structure (SMILES) | herbicidal effect (herbicidal rate), Amaranthus viridis
16 | COCC(C)n1oc(=O)c(Cc2ccccc2N(C(=O)CC(C)C)S(=O)(=O)C(F)(F)F)c1C (stereo not drawn) [Compound 1-357] | 40%
17 | Cc1c(Cc2cc(F)ccc2NS(=O)(=O)C(F)(F)F)c(=O)on1CC(C)C [Compound 1-28] | 80%
18 | Cc1c(Cc2ccccc2N(C(=O)OCC(C)C)S(=O)(=O)C(F)(F)F)c(=O)on1C [Compound 1-666] | 40%

Tested on: Chenopodium album
Assay: as above
Type: in vivo
Details: 120 g/10a active ingredient; emulsion sprayed seven days after seeding; evaluated 14 days after treatment
Procedure, shortened: as §2

Row | Structure (SMILES) | herbicidal effect (herbicidal rate), Chenopodium album
19 | COCC(C)n1oc(=O)c(Cc2ccccc2N(C(=O)CC(C)C)S(=O)(=O)C(F)(F)F)c1C (stereo not drawn) [Compound 1-357] | 40%
20 | Cc1c(Cc2cc(F)ccc2NS(=O)(=O)C(F)(F)F)c(=O)on1CC(C)C [Compound 1-28] | 40%
21 | Cc1c(Cc2ccccc2N(C(=O)OCC(C)C)S(=O)(=O)C(F)(F)F)c(=O)on1C [Compound 1-666] | 50%

Tested on: southern crabgrass
Assay: as above
Type: in vivo
Details: 120 g/10a active ingredient; emulsion sprayed seven days after seeding; evaluated 14 days after treatment
Procedure, shortened: as §2

Row | Structure (SMILES) | herbicidal effect (herbicidal rate), southern crabgrass
22 | COCC(C)n1oc(=O)c(Cc2ccccc2N(C(=O)CC(C)C)S(=O)(=O)C(F)(F)F)c1C (stereo not drawn) [Compound 1-357] | 90%
23 | Cc1c(Cc2cc(F)ccc2NS(=O)(=O)C(F)(F)F)c(=O)on1CC(C)C [Compound 1-28] | 50%
24 | Cc1c(Cc2ccccc2N(C(=O)OCC(C)C)S(=O)(=O)C(F)(F)F)c(=O)on1C [Compound 1-666] | 70%

Tested on: Echinochloa crus-galli
Assay: Test Example 3: herbicidal effect test by treatment of dry field farming soil (one day after seeding)
Type: in vivo
Details: 120 g/10a active ingredient, evaluated 14 days after treatment
Procedure, shortened: (§3)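 Herbicidal rate (%) = {1 − treated/untreated mean plant dry weight} × 100, scored 14 days after spraying, duplicate pots per concentration. Emulsified compound was water-diluted and applied to soil surface one day post-seeding at 120 g a.i. per 10 ares.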

Row | Structure (SMILES) | herbicidal rate, Echinochloa crus-galli
25 | COCC(C)n1oc(=O)c(Cc2ccccc2N(C(=O)CC(C)C)S(=O)(=O)C(F)(F)F)c1C (stereo not drawn) [Compound 1-357] | 90%
26 | Cc1c(Cc2cc(F)ccc2NS(=O)(=O)C(F)(F)F)c(=O)on1CC(C)C [Compound 1-28] | 90%
27 | Cc1c(Cc2ccccc2N(C(=O)OCC(C)C)S(=O)(=O)C(F)(F)F)c(=O)on1C [Compound 1-666] | 90%

Tested on: Amaranthus viridis
Assay: as above
Type: in vivo
Details: 120 g/10a active ingredient, evaluated 14 days after treatment
Procedure, shortened: as §3

Row | Structure (SMILES) | herbicidal rate, Amaranthus viridis
28 | COCC(C)n1oc(=O)c(Cc2ccccc2N(C(=O)CC(C)C)S(=O)(=O)C(F)(F)F)c1C (stereo not drawn) [Compound 1-357] | 90%
29 | Cc1c(Cc2cc(F)ccc2NS(=O)(=O)C(F)(F)F)c(=O)on1CC(C)C [Compound 1-28] | 100%
30 | Cc1c(Cc2ccccc2N(C(=O)OCC(C)C)S(=O)(=O)C(F)(F)F)c(=O)on1C [Compound 1-666] | 0%

Tested on: Chenopodium album
Assay: as above
Type: in vivo
Details: 120 g/10a active ingredient, evaluated 14 days after treatment
Procedure, shortened: as §3

Row | Structure (SMILES) | herbicidal rate, Chenopodium album
31 | COCC(C)n1oc(=O)c(Cc2ccccc2N(C(=O)CC(C)C)S(=O)(=O)C(F)(F)F)c1C (stereo not drawn) [Compound 1-357] | 90%
32 | Cc1c(Cc2cc(F)ccc2NS(=O)(=O)C(F)(F)F)c(=O)on1CC(C)C [Compound 1-28] | 100%
33 | Cc1c(Cc2ccccc2N(C(=O)OCC(C)C)S(=O)(=O)C(F)(F)F)c(=O)on1C [Compound 1-666] | 40%

Tested on: southern crabgrass
Assay: as above
Type: in vivo
Details: 120 g/10a active ingredient, evaluated 14 days after treatment
Procedure, shortened: as §3

Row | Structure (SMILES) | herbicidal rate, southern crabgrass
34 | COCC(C)n1oc(=O)c(Cc2ccccc2N(C(=O)CC(C)C)S(=O)(=O)C(F)(F)F)c1C (stereo not drawn) [Compound 1-357] | 90%
35 | Cc1c(Cc2cc(F)ccc2NS(=O)(=O)C(F)(F)F)c(=O)on1CC(C)C [Compound 1-28] | 80%
36 | Cc1c(Cc2ccccc2N(C(=O)OCC(C)C)S(=O)(=O)C(F)(F)F)c(=O)on1C [Compound 1-666] | 100%

Tested on: Echinochloa crus-galli
Assay: Test Example 2: herbicidal effect test by treatment during growing period in paddy rice cultivation (seven days after seeding)
Type: in vivo
Details: 120 g/10a active ingredient, assessed 14 days after treatment, dry weight vs untreated area
Procedure, shortened: (§4)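 Emulsion formulations, diluted in water, applied dropwise to flooded pots (about 3 cm water) 7 days post-seeding at 120 g a.i./10 ares. Weeds sown 30 seeds each, 0–1 cm deep in puddled paddy soil; greenhouse. Readout: % reduction in plant dry weight vs untreated, day 14, duplicates.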

Row | Structure (SMILES) | Herbicidal rate (%) Echinochloa crus-galli
37 | COCC(C)n1oc(=O)c(Cc2ccccc2N(C(=O)CC(C)C)S(=O)(=O)C(F)(F)F)c1C (stereo not drawn) [Compound 1-357] | 90%
38 | Cc1c(Cc2cc(F)ccc2NS(=O)(=O)C(F)(F)F)c(=O)on1CC(C)C [Compound 1-28] | 100%
39 | Cc1c(Cc2ccccc2N(C(=O)OCC(C)C)S(=O)(=O)C(F)(F)F)c(=O)on1C [Compound 1-666] | 100%

Tested on: Scirpus juncoides
Assay: as above
Type: in vivo
Details: 120 g/10a active ingredient, assessed 14 days after treatment, dry weight vs untreated area
Procedure, shortened: as §4

Row | Structure (SMILES) | Herbicidal rate (%) Scirpus juncoides
40 | COCC(C)n1oc(=O)c(Cc2ccccc2N(C(=O)CC(C)C)S(=O)(=O)C(F)(F)F)c1C (stereo not drawn) [Compound 1-357] | 90%
41 | Cc1c(Cc2cc(F)ccc2NS(=O)(=O)C(F)(F)F)c(=O)on1CC(C)C [Compound 1-28] | 90%
42 | Cc1c(Cc2ccccc2N(C(=O)OCC(C)C)S(=O)(=O)C(F)(F)F)c(=O)on1C [Compound 1-666] | 90%

Tested on: broad leaf weeds (Lindernia pyxidaria and Monochoria vaginalis)
Assay: as above
Type: in vivo
Details: Lindernia pyxidaria, 120 g/10a active ingredient, assessed 14 days after treatment, dry weight vs untreated area
Procedure, shortened: as §4

Row | Structure (SMILES) | Herbicidal rate (%) Lindernia pyxidaria
43 | COCC(C)n1oc(=O)c(Cc2ccccc2N(C(=O)CC(C)C)S(=O)(=O)C(F)(F)F)c1C (stereo not drawn) [Compound 1-357] | 90%
44 | Cc1c(Cc2cc(F)ccc2NS(=O)(=O)C(F)(F)F)c(=O)on1CC(C)C [Compound 1-28] | 80%
45 | Cc1c(Cc2ccccc2N(C(=O)OCC(C)C)S(=O)(=O)C(F)(F)F)c(=O)on1C [Compound 1-666] | 90%

Same assay, conditions: Monochoria vaginalis, 120 g/10a active ingredient, assessed 14 days after treatment, dry weight vs untreated area

Row | Structure (SMILES) | Herbicidal rate (%) Monochoria vaginalis
46 | COCC(C)n1oc(=O)c(Cc2ccccc2N(C(=O)CC(C)C)S(=O)(=O)C(F)(F)F)c1C (stereo not drawn) [Compound 1-357] | 90%
47 | Cc1c(Cc2cc(F)ccc2NS(=O)(=O)C(F)(F)F)c(=O)on1CC(C)C [Compound 1-28] | 100%
48 | Cc1c(Cc2ccccc2N(C(=O)OCC(C)C)S(=O)(=O)C(F)(F)F)c(=O)on1C [Compound 1-666] | 90%

Source: patent publication US11109593B2, “Isoxazolin-5-one derivative and herbicide containing same as active ingredient” (HOKKO CHEMICAL INDUSTRY CO., LTD., priority 2017, dated 2021)
